# Assays:
# [1] = tested on: Brassica oleracea cv Botrytis (temperate cauliflower) seeds; experiment: Paper germination test, temperate cauliflower seeds, 10° C. in the light; type: in vivo; conditions: 25 μM, sets A and B separate experiments
# Method: The effect of compounds of Formula (I) on the germination of Brassica oleracea cv Botrytis or common cauliflower was tested on two types of cauliflowers: temperate types and tropical types. These two types were chosen because they display different sensitivities to the light conditions and temperature during germination. Germination of a sensitive temperate type is inhibited by light at 10° C. while for the tropical types germination at 20° is stimulated by the presence of light.
# The temperate seed batches tested are part of commercially produced seed batches of various varieties which are known to be sensitive to light at 10° C. These seeds were harvested and cleaned according standard commercial procedures. Ready seed batches were used (Ready indicates the processing level of these seeds: they have been cleaned and sized but received no other treatments). The tropical seed batches tested are part of seed batches produced as basic seed (for maintenance of the parental line) and were processed accordingly.
# Germination was assessed using the standard paper germination test for Brassica: Fifty seeds were placed on blue germination paper, which was moistened with the appropriate solutions, in closed oblong germination boxes. Each condition was tested in duplo. Germination boxes were placed in controlled germination cabinets with the appropriate temperature and light conditions. Germination of seeds was counted at regular intervals. Seeds were considered to be germinated when the radical had protruded the testa and endosperm (radical size approximately 1 mm)
# Test compounds were dissolved in DMSO at a concentration of 50 mM and stored at −20° C. The strigolactone analogue GR24 (commercially available as a racemic mixture of 2 diastereoisomers, referred to as “synthetic strigolactone GR-24” and first prepared by Johnson A. W. & all, Journal of the Chemical Society, Perkin Transactions 1, 1981, page 1734-1743) was included as positive control. Germination solutions were prepared by diluting the stock solutions with demineralized water till 25 μM. As control solutions demineralized water and a 0.05% v/v DMSO solution were used.
# [2] = tested on: Orobanche cumana Wallr. seeds; experiment: Germination of preconditioned Orobanche cumana seeds on glass fiber filter paper in petri dishes; type: in vivo; conditions: mean, N = 5 × 100 seeds, seed lot IN153
# Method: The effect of compounds of Formula (I) on germination of Orobanche cumana Wallr. seeds was evaluated on glass fiber filter paper (GFFP) in petri dishes. Seeds were preconditioned at moisture and suitable temperature to become responsive to the specific chemical germination stimulants.
# Test compounds were dissolved in DMSO (10 000 mg l^−1) and stored at room temperature in a desiccators with desiccants. The stock solutions were dissolved with deionised water to the appropriate final test concentration.
# Seeds of O. cumana race ‘F’ (IN153) were collected from a sunflower field in Manzanilla (Seville, Spain) in 2006 and stored at room temperature. To separate seeds from heavy organic debris, a modified sucrose floatation technique as described by Hartman & Tanimonure (Plant Disease (1991), 75, p. 494) was applied. Seeds were filled into a separation funnel and stirred in water. When seeds floated to the surface, the water fraction containing heavy debris was discarded. Seeds were re-suspended in 2.5M sucrose solution (specific gravity of 1.20) and heavy debris was allowed to settle down for 60 min After removing debris, seeds were disinfected in 1% sodium hypochlorite solution and 0.025% (v/v) Tween 20 for 2 min. The seeds were decanted onto two layers of cheesecloth, rinsed with sterile deionised water and re-suspended in sterile deionised water. Two ml of the seed suspension containing approximately 150-400 seeds were spread evenly on two layers of sterile glass fiber filter paper disc ([…]) in Petri dishes (Ø9 cm). After wetting the discs with 3 ml sterile deionised water, petri dishes were sealed with parafilm. Seeds were incubated for 10 days at 20° C. in the dark for seed conditioning. The upper disc with conditioned seeds was briefly dried, transferred to a petri dish lined with a dry GFFP disc, and wetted with 6 ml of the appropriate test solution. The compounds of Formula (I) were tested at concentrations of 0.001, 0.01, 0.1, or 1 mg l^−. The strigolactone analogue GR24 was included as positive control and 0.01% DMSO as negative control. All treatments were tested in five replicates. Seeds were re-incubated at 20° C. in the dark and examined for germination 10 days later. The radicles of germinated seeds were stained for 5 min with blue ink (MIGROS, Switzerland) in 5% acetic acid according to Long et al. (Seed Science Research (2008), 18, p. 125). After staining, seeds were photographed using a camera stand mounted with a digital SLR camera (Canon EOS 5D). Germination of 100 seeds per replicate was evaluated on digital images. Seeds were considered germinated when the radicle protruded from the seed coat.
# [3] = temperate cauliflower Spacestar seed batch 11B313 (cold-sensitive)
# [4] = temperate cauliflower Spacestar seed batch 11B314 (not cold sensitive)
# [5] = Table B1, concentration 0.001 mg 1^−1, DMSO control 0.4% germination
# [6] = Table B1, concentration 0.1 mg 1^−1, DMSO control 0.4% germination
# [7] = Table B1, concentration 1 mg 1^−1, DMSO control 0.4% germination
# [8] = Table B3, concentration 0.001 mg 1^−1, DMSO control 0% germination
# [9] = Table B3, concentration 0.01 mg 1^−1, DMSO control 0% germination
# [10] = Table B3, concentration 0.1 mg 1^−1, DMSO control 0% germination
# [11] = Table B2, concentration 0.01 mg 1^−1, DMSO control 2.4% germination
# [12] = Table B2, concentration 0.1 mg 1^−1, DMSO control 2.4% germination
# [13] = Table B2, concentration 1 mg 1^−1, DMSO control 2.4% germination
smiles,measurement,setting,value
"CC1=CC(O/C=C2\CCNC2=O)OC1=O (stereo not shown) [Ia-8, (3E)-3-[(4-methyl-5-oxo-2H-furan-2-yl)oxymethylene]pyrrolidin-2-one]","Gmax (%), total germination as percentage of sown seeds",[1]; [3],77.0%
same,"stimulation (%), extra germination compared to the DMSO treatment, as percentage of the germination in the DMSO treatment",[1]; [3],42.6%
same,"Gmax (%), total germination as percentage of sown seeds",[1]; [4],93.0%
same,"stimulation (%), extra germination compared to the DMSO treatment, as percentage of the germination in the DMSO treatment",[1]; [4],8.1%
"CC1=CC(O/C=C2\CC(C)N(C(=O)OC(C)(C)C)C2=O)OC1=O (stereo not shown) [Ib-6, tert-butyl (3E)-5-methyl-3-[(4-methyl-5-oxo-2H-furan-2-yl)oxymethylene]-2-oxo-pyrrolidine-1-carboxylate]",Germination (%),[2]; [5],0.4%
same,Germination (%),[2]; [6],1.8%
same,Germination (%),[2]; [7],5.6%
"CC1=CC(O/C=C2\CC(c3ccccc3)N(C(=O)OC(C)(C)C)C2=O)OC1=O (stereo not shown) [Ib-10, tert-butyl (3E)-3-[(4-methyl-5-oxo-2H-furan-2-yl)oxymethylene]-2-oxo-5-phenyl-pyrrolidine-1-carboxylate]",Germination (%),[2]; [8],72.8%
same,Germination (%),[2]; [9],72.4%
same,Germination (%),[2]; [10],71.8%
"CC1=CC(O/C=C2\CCCN(c3ccccc3)C2=O)OC1=O (stereo not shown) [I-5, (3E)-3-[(4-methyl-5-oxo-2H-furan-2-yl)oxymethylene]-1-phenyl-piperidin-2-one]",Germination (%),[2]; [11],1%
same,Germination (%),[2]; [12],0%
same,Germination (%),[2]; [13],42.2%
"CC1=CC(O/C=C2\CCN(c3ccccc3)C2=O)OC1=O (stereo not shown) [I-3, (3E)-3-[(4-methyl-5-oxo-2H-furan-2-yl)oxymethylene]-1-phenyl-pyrrolidin-2-one]",Germination (%),[2]; [11],0%
same,Germination (%),[2]; [12],1.6%
same,Germination (%),[2]; [13],19.2%
"CC1=CC(O/C=C2/C(=O)N(C(=O)OC(C)(C)C)C3CCCC23)OC1=O (stereo not shown) [Ib-2, tert-butyl (3E)-3-[(4-methyl-5-oxo-2H-furan-2-yl)oxymethylene]-2-oxo-4,5,6,6a-tetrahydro-3aH-cyclopenta[b]pyrrole-1-carboxylate]",Germination (%),[2]; [5],0%
same,Germination (%),[2]; [6],18.2%
same,Germination (%),[2]; [7],54.8%
"CC1=CC(O/C=C2/C(=O)NC3CCCC23)OC1=O (stereo not shown) [Ia-2, (3E)-3-[(4-methyl-5-oxo-2H-furan-2-yl)oxymethylene]-1,3a,4,5,6,6a-hexahydrocyclopenta[b]pyrrol-2-one]",Germination (%),[2]; [11],75.4%
same,Germination (%),[2]; [12],65.4%
same,Germination (%),[2]; [13],83.4%
"CC1=CC(O/C=C2\CCC(c3ccccc3)NC2=O)OC1=O (stereo not shown) [Ia-12, (3E)-3-[(4-methyl-5-oxo-2H-furan-2-yl)oxymethylene]-6-phenyl-piperidin-2-one]",Germination (%),[2]; [8],93.3%
same,Germination (%),[2]; [9],86.8%
same,Germination (%),[2]; [10],92.4%
"CC1=C[C@H](O/C=C2/C(=O)N[C@@H]3C=CC[C@H]23)OC1=O [Ia-1′, (3E,3aR,6aR)-3-[[(2R)-4-methyl-5-oxo-2H-furan-2-yl]oxymethylene]-1,3a,4,6a-tetrahydrocyclopenta[b]pyrrol-2-one]",Germination (%),"[2]; Table B6, concentration 0.001 mg 1^−1, DMSO control 2.4% germination",68.0%
same,Germination (%),"[2]; Table B6, concentration 0.1 mg 1^−1, DMSO control 2.4% germination",55.3%
same,Germination (%),"[2]; Table B6, concentration 1 mg 1^−1, DMSO control 2.4% germination",54.8%
"CC1=CC(O/C=C2\CC(=O)N(C)C2=O)OC1=O (stereo not shown) [I-7, (3E)-1-methyl-3-[(4-methyl-5-oxo-2H-furan-2-yl)oxymethylene]pyrrolidine-2,5-dione]",Germination (%),[2]; [11],1%
same,Germination (%),[2]; [12],1.4%
same,Germination (%),[2]; [13],17.2%
"CC1=CC(O/C=C2\CCN(C(=O)OC(C)(C)C)C2=O)OC1=O (stereo not shown) [Ib-8, tert-butyl (3E)-3-[(4-methyl-5-oxo-2H-furan-2-yl)oxymethylene]-2-oxo-pyrrolidine-1-carboxylate]",Germination (%),[2]; [11],0.2%
same,Germination (%),[2]; [12],2.8%
same,Germination (%),[2]; [13],1.4%
"CC1=CC(O/C=C2\CCCCN(C(=O)OC(C)(C)C)C2=O)OC1=O (stereo not shown) [Ib-13, tert-butyl (3E)-3-[(4-methyl-5-oxo-2H-furan-2-yl)oxymethylene]-2-oxo-azepane-1-carboxylate]",Germination (%),"[2]; Concentration 0.01 mg l^-1, 10 days at 20° C. in the dark",48%
same,Germination (%),"[2]; Concentration 0.01 mg l^-1 as printed, 10 days at 20° C. in the dark",83%
same,Germination (%),"[2]; Concentration 1 mg l^-1, 10 days at 20° C. in the dark",90.8%
"CC1=CC(O/C=C2\CCC(c3ccccc3)N(C(=O)OC(C)(C)C)C2=O)OC1=O (stereo not shown) [Ib-12, tert-butyl (3E)-3-[(4-methyl-5-oxo-2H-furan-2-yl)oxymethylene]-2-oxo-6-phenyl-piperidine-1-carboxylate]",Germination (%),[2]; [8],91%
same,Germination (%),[2]; [9],89%
same,Germination (%),[2]; [10],90.2%
"CC1=CC(O/C=C2\CC(C)N(c3ccccc3)C2=O)OC1=O (stereo not shown) [I-4, (3E)-5-methyl-3-[(4-methyl-5-oxo-2H-furan-2-yl)oxymethylene]-1-phenyl-pyrrolidin-2-one]",Germination (%),[2]; [11],0.6%
same,Germination (%),[2]; [12],1%
same,Germination (%),[2]; [13],18.2%
"CC1=CC(O/C=C2/C(=O)N(C(=O)OC(C)(C)C)C3C=CCC23)OC1=O (stereo not shown) [Ib-1, tert-butyl (3E)-3-[(4-methyl-5-oxo-2H-furan-2-yl)oxymethylene]-2-oxo-4,6a-dihydro-3aH-cyclopenta[b]pyrrole-1-carboxylate]",Germination (%),[2]; [5],0%
same,Germination (%),[2]; [6],25.8%
same,Germination (%),[2]; [7],92.6%
